Test results reported in article PMC4790305, “An FDA-Drug Library Screen for Compounds with Bioactivities against Meticillin-Resistant Staphylococcus aureus (MRSA)” (Antibiotics, 2015).
Values after ≈ are worked out from the molar mass of the structure shown.

Legend:
[1] = system: MRSA USA 100 (ATCCBAA-1681); test: Minimum inhibitory concentration (MIC) assay, MRSA USA 100; format: cell-based, meticillin-resistant Staphylococcus aureus; conditions: Staphylococcus aureus; microdilution, overnight 35 °C; read-out: MRSA MICs USA 100
Source text: (§1) The 1163 FDA-approved drugs were purchased as a library set from Selleckchem (catalog #L1300). For MIC assays, Ivacaftor, Mupirocin and Tigecycline were purchased from Santa Cruz Biotechnology (Dallas, TX, USA). All other test compounds were purchased from Sigma-Aldrich (St. Louis, MO, USA) and were used without further purification. MRSA strains USA 100 (ATCCBAA-1681), USA 300 (ATCC-BAA-1680), USA400 (ATCC-BAA-1707) and VISA (ATCC-700699) were purchased from ATCC (Manassas, VA, USA).
(§2) The MICs of antibiotics and peptides were determined using the microdilution method from the Clinical and Laboratory Standards Institute (CLSI) guidelines. Briefly, bacteria were grown fresh from frozen stock in MH2 agar at 37 °C. After an overnight incubation, five MRSA colonies were selected to grow in cation-adjusted MH2 broth (BD Biosciences catalog #212322) in a shaker incubator at 37 °C, 220 RPM. Cells were grown to an optical density (OD600) of 0.15–0.16 using a Microplate Spectrophotometer (Molecular Devices Spectra Max Plus), which corresponds to 1–2 × 10^8 CFU/mL. Test compounds were constituted into 4 mM DMSO stock solutions and then subjected to two-fold serial dilution in a 96-well plate with concentrations ranging from 100 to 0.2 μM in duplicates. The amount of 50 μL of microbial culture containing ~1–2 × 10^6 CFU/mL of microbes in the respective broths was introduced into each well containing 50 μL of compound. After an overnight incubation at 35 °C, OD600 measurements were conducted using the Microplate Spectrophotometer. The MIC was defined as the lowest drug concentration (μM) required to inhibit microbial growth.

[2] = system: MRSA USA 300 (ATCC-BAA-1680); test: Minimum inhibitory concentration (MIC) assay, MRSA USA 300; format: cell-based, meticillin-resistant Staphylococcus aureus; conditions: Staphylococcus aureus; microdilution, overnight 35 °C; read-out: MRSA MICs USA 300
Source text: as §1, §2

[3] = system: MRSA USA400 (ATCC-BAA-1707); test: Minimum inhibitory concentration (MIC) assay, MRSA USA 400; format: cell-based, meticillin-resistant Staphylococcus aureus; conditions: Staphylococcus aureus; microdilution, overnight 35 °C; read-out: MRSA MICs USA 400
Source text: as §1, §2

[4] = system: VISA (ATCC-700699); test: Minimum inhibitory concentration (MIC) assay, VISA; format: cell-based, meticillin-resistant Staphylococcus aureus; conditions: Staphylococcus aureus, ATCC 700699 / MRSA / VISA; microdilution, overnight 35 °C; read-out: MRSA MICs VISA
Source text: as §1, §2

[5] = system: Adult normal human epidermal keratinocytes (NHEK); test: Human epidermal keratinocyte viability (GI50) assay; format: cell-based; conditions: 120 h, 5 days incubation, CellTiter-Glo, read-out: Keratinocyte GI50
Protocol: Adult normal human epidermal keratinocytes (NHEK) were purchased from Lonza (catalog #00192627, Basel, Switzerland) and cultured in keratinocyte growth medium (Lonza KGM-Gold Bullet Kit) containing growth supplements (Lonza Reagent Pack) at 5% CO2 (37 °C). The cell viability assay was performed using the CellTiter-Glo Luminescent Cell Viability Assay protocol from Promega (www.promega.com, Fitchburg, WI, USA). Briefly, NHEK were treated with test compounds in keratinocyte growth medium in 96-well plates (Thermo Scientific Nunclon Delta, Waltham, MA, USA). Treated cells were incubated for 5 days at 5% CO2 (37 °C). Promega CellTiter-Glo Reagent was added and plates were shaken on an orbital shaker for […]. Next, well contents (100 μL) from each well were transferred into opaque 96-well plates (PerkinElmer OptiPlate-96) and luminescence measured by a microplate reader (Tecan Safire2).

[6] = system: panel of clinical MRSA strains (USA 100, USA 300, USA 400 and VISA); test: MIC assay against panel of clinical MRSA strains; format: cell-based, meticillin-resistant Staphylococcus aureus; conditions: Staphylococcus aureus, across USA 100, USA 300, USA 400 and VISA
Source text: as §1, §2

[7] = system: MRSA USA100; test: Single-point 10 μM bacteria growth inhibition assay; format: cell-based, meticillin-resistant Staphylococcus aureus; conditions: MRSA USA 100
Source text: as §1
MRSA USA100 was grown from frozen glycerol stock on Mueller Hinton 2 (MH2) agar overnight at 37 °C. Five colonies were selected from the agar plate and grown in cation-adjusted MH2 broth (BD Biosciences catalog #212322, Franklin Lakes, NJ, USA) in a shaker incubator at 37 °C, 220 RPM. Cells were grown to 1–2 × 10^8 CFU/mL and diluted 1:100 in MH2 broth. An amount of 50 μL of test compounds pre-dissolved in MH2 broth at 20 μM concentrations were added in duplicates into each well in a 96-well plate. A total of 50 μL of bacteria inoculums containing ~1 × 10^6 CFU/mL of bacteria in MH2 broth was introduced into each well containing the test compounds. The final DMSO concentration was kept at 2.5% in each well. After an overnight incubation at 35 °C, optical density (OD600) of each well was determined using the Microplate Spectrophotometer (Molecular Devices Spectra Max Plus, Sunnyvale, CA, USA).

[8] = system: mouse; parameters: method as in PMID 12724731; conditions: cited from earlier work
[9] = intravenously administered; cited from earlier work
[10] = system: MRSA USA300; test: Bactericidal/static determination assay; format: cell-based, meticillin-resistant Staphylococcus aureus; conditions: MRSA USA300, 4× MIC; bactericidal when ≥99.9% cell death
Protocol: After the MICs of test compounds were determined using the microdilution method described in Section 2.2, the entire well contents (100 μL) corresponding to 4× the MIC of the antibiotic or peptide were transferred and spread on fresh sterile MH2 agar plates. The plates were incubated overnight at 37 °C and the number of colony forming units (CFU) was determined the next day. A compound was classified as bactericidal when ≥99.9% cell death was observed.

[11] = system: MRSA USA300; test: Time-kill assay; format: cell-based, meticillin-resistant Staphylococcus aureus; conditions: MRSA USA300, 4× MIC, within 6 h
Protocol: Bacteria cells were grown to 1 × 10^8 CFU/mL in MH2 broth and then diluted […] into 5 mL aliquots to a density of 1 × 10^6 CFU/mL in a flask. Test compounds pre-dissolved in DMSO corresponding to 4× their MICs were then added into each flask with a final DMSO concentration of 2.5% v/v. The negative control was 2.5% DMSO. The flasks were incubated in a shaking incubator (220 RPM) at 37 °C. Samples (100 μL) were taken hourly from the flasks between t = 0 and t = 6 h. The samples were serially diluted in MH2 broth before plating on sterile MH2 agar and incubated overnight at 37 °C. A bacteria count for each plate was conducted the next day. A graph of Log CFU/mL was plotted against time to obtain the time-kill graph.

[12] = system: rats; conditions: rat, cited from earlier work
[13] = printed conversion of μM values

O=c1[nH]cc(F)c(=O)[nH]1 [5-fluorouracil, 5-Fluorouracil]
MIC [1]: 6.25 µM (≈ 0.813 µg/mL) | MIC [2]: 3.13 µM (≈ 0.407 µg/mL) | MIC [3]: 3.13 µM (≈ 0.407 µg/mL) | MIC [4]: 6.25 µM (≈ 0.813 µg/mL) | GI50 [5]: 33.3 ± 2.6 µM | MIC [6]: 3.13 to 6.25 µM | Antibacterial activity in single-point screen [7]: either bacteriostatic or bactericidal | intravenous LD50 [8]: 81 mg/kg | half-life [9]: 10 to 16 min

CCC[C@@H]1C[C@@H](C(=O)N[C@@H]([C@H]2O[C@H](SC)[C@H](O)[C@@H](O)[C@H]2O)[C@H](C)Cl)N(C)C1 [Clindamycin]
MIC [1]: > 100 µM | MIC [2]: 0.2 µM (≈ 0.085 µg/mL) | MIC [3]: 0.2 µM (≈ 0.085 µg/mL) | MIC [4]: > 100 µM | GI50 [5]: > 50 µM

C[C@H]1c2cccc(O)c2C(=O)C2=C(O)[C@]3(O)C(=O)C(C(N)=O)=C(O)[C@@H](N(C)C)[C@@H]3[C@@H](O)[C@@H]21 [Doxycycline]
MIC [1]: 0.39 µM (≈ 0.173 µg/mL) | MIC [2]: 0.78 µM (≈ 0.347 µg/mL) | MIC [3]: 1.56 µM (≈ 0.693 µg/mL) | MIC [4]: 12.5 µM (≈ 5.56 µg/mL) | GI50 [5]: 36.9 ± 3.7 µM

O=c1[nH]c(=O)n([C@H]2C[C@H](O)[C@@H](CO)O2)cc1F [Floxuridine]
MIC [1]: 0.025 µM (≈ 0.00615 µg/mL) | MIC [2]: 0.00313 µM (≈ 0.000771 µg/mL) | MIC [3]: 0.0125 µM (≈ 0.00308 µg/mL) | MIC [4]: 0.00625 µM (≈ 0.00154 µg/mL) | GI50 [5]: > 100 µM | MIC [6]: 0.00313 to 0.025 µM | MIC [6, 13]: 0.77 to 6.16 ng/mL | Bactericidal/static classification [10]: bactericidal | log reduction in bacteria count [11]: ~2 log | Antibacterial activity in single-point screen [7]: either bacteriostatic or bactericidal | intraperitoneal LD50 ([12]; intraperitoneal): 1600 mg/kg

Nc1ccn([C@@H]2O[C@H](CO)[C@@H](O)C2(F)F)c(=O)n1 [Gemcitabine]
MIC [1]: 0.1 µM (≈ 0.0263 µg/mL) | MIC [2]: 0.05 µM (≈ 0.0132 µg/mL) | MIC [3]: 0.1 µM (≈ 0.0263 µg/mL) | MIC [4]: 0.05 µM (≈ 0.0132 µg/mL) | GI50 [5]: 1.9 ± 0.2 µM | MIC [6]: 0.05 to 0.1 µM | MIC [6, 13]: 10 to 20 ng/mL | Antibacterial activity in single-point screen [7]: either bacteriostatic or bactericidal | intravenous LD50 ([12]; intravenous): 236 mg/kg

CC(C)(C)c1cc(C(C)(C)C)c(NC(=O)c2c[nH]c3ccccc3c2=O)cc1O [Ivacaftor]
MIC [1]: 6.25 µM (≈ 2.45 µg/mL) | MIC [2]: 6.25 µM (≈ 2.45 µg/mL) | MIC [3]: 6.25 µM (≈ 2.45 µg/mL) | MIC [4]: 6.25 µM (≈ 2.45 µg/mL) | GI50 [5]: 5.9 ± 0.5 µM | MIC [6]: 6.25 µM | Antibacterial activity in single-point screen [7]: either bacteriostatic or bactericidal
